These results are taken from patent publication US12677850B2, “Stevia blends containing rebaudioside B” (Tate & Lyle Solutions USA LLC, priority 2011, dated 2026).

Series [1] concerns Tate & Lyle employees (taste panel). Briefly: Paired comparison test for sweetness and preference, Reb A/Reb B mixture vs 900 ppm 97% rebaudioside A (Example 3). It is filed as in vivo, human. The following applies: 536 ppm Reb A + 310 ppm Reb B vs control 900 ppm Reb A; spring water with phosphoric acid; room temperature; test sample tasted first. How it is done: A taste panel was asked to compare a commercial mixture of rebaudioside A and rebaudioside B and a 900 ppm sample of 97% rebaudioside A. Tate &Lyle employees participated in paired comparison tests for sweetness and preference. Samples were tested at room temperature in two ounce soufflé cups label with random three-digit code& The presentation order was not rotated because of carryover of the off-flavor of rebaudioside A at 900 ppm. The panelist evaluated the test sample first and then the control 900 ppm rebaudioside A sample. The panelists were instructed not to re-taste the samples. Additionally, the panelists were required to wait one minute between testing samples and instructed to clear their palates with a 2% sucrose solution, an unsalted cracker, and bottled water. The panelists were asked to identify the solution that was sweeter and which they like better. The ballot was presented and the data was collected with SIMS sensory software (Sensory Computer Systems, LLC, Morristown, NJ).
The instructions for the paired comparison test were: • (i) It is important that you rinse before and between samples. • (ii) Clear your palate with a bite of cracker. Then rinse with the sugar water. […]

For series [2] the following is noted: previous reports; cited from earlier work.
The format of series [3] is physicochemical. The settings on record: pH 3. The procedure: To determine the solubility of rebaudioside A and rebaudioside B in certain solutions, four stock solutions were prepared. A 10× concentrated citric acid/sodium citrate pH 3 stock buffer solution was prepared by dissolving 0.9 g anhydrous citric acid and 0.26 g of sodium citrate dihydrate in water to make 100 mL of buffer (0.047 M citric acid+0.0088 M sodium citrate). A 2500 ppm (nominal) solution of rebaudioside A was prepared by dissolving 0.125 g of GLG RA 97 to make 50 mL of solution. A 2500 ppm (nominal) solution of stevioside was prepared by dissolving 0.125 g of GLG STV 97 to make 50 mL of solution. A 1000 ppm (nominal) solution of rebaudioside B was prepared by diluting 56 mL of a solution assayed at 1790 ppm to make 100 mL of solution.
These solutions were mixed as 1 mL total amounts by micropipetting the volumes, in microliters, into 1.5 mL microcentrifuge tubes As shown in Table 14.
After standing for […] (~100 hours), the tubes were spun in a bench top microcentrifuge to pelletize the precipitate. The clear supernate was sampled into vials and assayed for glycosides using a reverse phase high performance liquid chromatograph (HPLC) gradient method with UV detection (Waters 2695 Separations Module equipped with a Waters 2487 Dual X Absorbance Detector or equivalent instrumentation) that is summarized in Table 15. The HPLC conditions were as follows:
The supernatant data collected from the HPLC were processed using DESIGN EXPERT 8 software. Briefly, the data were entered into the program as “factor” data as a 2 factor-5 level general factorial design as the nominal data which were then converted to numerical data and replaced by the actual HPLC results. The software then selected a model that predicted the concentration (solubility) of rebaudioside B as a function of the concentration of rebaudioside A and stevioside in the supernatant. The software also calculated a number of statistical factors that indicated the significance of the model parameters.

A further series has as its system informal testers. Briefly: Informal testing of bitterness. Type of series: in vivo, human. The following applies: adding about 20%; as believed by several informal testers. The text has this:
Because the scale used encompasses “the universe”, the magnitude of differences between the 97% rebaudioside A solution and increasing levels of rebaudioside B is not as large as other informal testing determined.

The subject of series [4] is panelists (descriptive panel). Briefly: Descriptive panel: flavor attributes and intensities as a function of rebaudioside B content (Example 6). Type of series: in vivo, human. The following applies: adding about 20%; results from the descriptive panel of tasters. How it is done: A descriptive panel was used to quantify flavor attributes and intensities of varying levels of rebaudioside B added to rebaudioside A (which was 97% pure and contained 0.62% rebaudioside B). […] An 8% sucrose solution as a control. The solutions were prepared in neutral pH water. Other high intensity sweeteners included in the testing were Aspartame at 500 ppm, ASK at 750 ppm, Sucralose at 250 ppm, and Stevia at 500 ppm.
Before conducting the testing the ten panelists were extensively trained in the use of standardized vocabulary to describe the appearance, aroma, flavor, and texture of a wide variety of products in order to rate the samples for sweetness, bitterness, off flavor, chemical or artificial sweetener flavor, anise, and mouth coating. Each such attribute was evaluated on a first and second sip, and on after-taste. The testing began with a session to orient the panelists during which they tasted the samples and discussed the flavor characteristics. They also tasted and discussed references for “sweet”, “bitter”, and “anise”.
During the second and third days of testing, the panelists evaluated the samples for the various attributes and rated them on a scale from none to extreme that encompasses all food ingredient products, not just sweeteners. The products and solutions set forth in Table 19 were used to “anchor” the panelist to the scales.
Eight samples were evaluated per session. A 7 minute rest break was given between each sample and a 15 minute break was given after the first 4 samples had been evaluated. Two evaluations (i.e. replicates) were obtained from each panelist for each product; therefore, a total of 20 judgments were obtained for each product. During data collection, the panelists were instructed to indicate the intensity of each sensory characteristic by placing a vertical slash on 15-cm line scales. The serving order was balanced, with products seen approximately an equal number of times in each possible position. In the waiting room, ambient Alhambra drinking water, unsalted soda crackers, and celery were provided for cleansing the palate between samples.
Slash marks on the line scales were converted to numbers ranging from 1 to 15 by SIMS, the computerized sensory data collection system. Mean intensities were calculated for each sensory characteristic. Analysis of Variance and Duncan's Multiple Range Test, where appropriate, were used to determine significant differences among the samples for each attribute. When panelist-by-product interactions were significant, the mean square of the interaction term, instead of the mean square of the error term, was used in calculation of the product F values.
The flavor attributes were also compared between the samples.

For rebaudioside A [control 900 ppm Reb A], in series [1], the “preference (number of panelists preferring the sample)” value was found to be 2 and the “sweetness (number of panelists choosing the sample as sweeter)” value is 15.
As for rebaudioside B, in series [2], the “sweetness relative to rebaudioside A” value is on record as “one-half to two-thirds”. In addition, the solubility result in series [3] was “limited”.
Take rebaudioside A: the reduction of bitterness entry with informal testers is “about 80%”; in series [4], “about 30%”. Moreover, in series [3], the “effect of its presence on the solubility of rebaudioside B” value was “increases”.
